Some results are limits rather than exact numbers.

In experiment [1] the target is T1, HCV NS3/4A protease complex (BMS strain, genotype 1a) (Hepatitis C virus genotype 1a, UniProt P27958, C1454S).
T1 construct: DNA encoding the recombinant HCV NS3/4A protease complex (amino acids 1027 to 1711) for these strains; inferred from the pET21b vector and Ni-NTA purification; made in house; host or cells: Escherichia coli BL21 (DE3), pET21b
In words: Recombinant HCV NS3/4A protease complex FRET peptide assay, BMS strain. Type of experiment: biochemical. The settings on record: IC50 range, NS3/4A BMS Strain. The method, boiled down:
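Recombinant NS3/4A complex (aa 1027–1711) with C-terminal three-lysine tail, C1711G and C1454S, expressed in E. coli BL21(DE3) and purified by Ni-NTA then Superdex-S200. Inhibition of the complex from each strain measured in vitro by FRET peptide cleavage.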

Experiment [2] relates to HCV replicon in Huh7 cells. In words: HCV replicon cell-based assay (FRET). Particulars: Hepatitis C virus, Huh-7; HCV replicon; read-out: EC50 range. In outline:
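Huh7 cells stably carrying a genotype 1b HCV replicon (IRES-neo-EMCV-IRES-NS3-NS5B) were treated with compound for 4 days at 37 °C in 0.5% DMSO final. Lysates containing 10 μM FRET peptide RET S1 were read kinetically at 340/490 nm to give NS3 protease activity, from which EC50 was derived.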
On the technique in general: Replicon systems follow genome replication, usually without infectious particles.

T1 sequence (P27958 1658-1714, looked up, stated change not applied): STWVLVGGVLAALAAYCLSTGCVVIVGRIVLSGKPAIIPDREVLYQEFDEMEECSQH
T1 sequence (P27958 1027-1657, looked up, stated change not applied): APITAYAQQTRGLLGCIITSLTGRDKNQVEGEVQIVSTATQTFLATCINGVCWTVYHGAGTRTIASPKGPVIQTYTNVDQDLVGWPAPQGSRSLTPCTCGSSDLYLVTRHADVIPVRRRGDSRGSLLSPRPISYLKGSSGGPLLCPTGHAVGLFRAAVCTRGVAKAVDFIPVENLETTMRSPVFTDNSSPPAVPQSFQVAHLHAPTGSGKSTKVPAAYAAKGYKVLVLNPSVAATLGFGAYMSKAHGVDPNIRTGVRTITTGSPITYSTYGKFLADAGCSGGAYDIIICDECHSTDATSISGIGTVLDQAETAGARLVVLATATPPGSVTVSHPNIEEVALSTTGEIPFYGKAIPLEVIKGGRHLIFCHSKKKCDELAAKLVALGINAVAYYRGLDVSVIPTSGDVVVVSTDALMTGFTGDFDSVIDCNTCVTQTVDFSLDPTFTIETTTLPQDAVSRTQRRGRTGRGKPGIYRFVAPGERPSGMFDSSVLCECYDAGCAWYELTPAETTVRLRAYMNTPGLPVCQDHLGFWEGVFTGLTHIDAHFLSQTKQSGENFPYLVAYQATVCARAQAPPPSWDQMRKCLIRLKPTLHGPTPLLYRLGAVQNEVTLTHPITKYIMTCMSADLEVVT

In general, IC50 refers to the concentration needed to halve the response being measured. The EC50 is the concentration at which the effect is half-maximal. On to `C=C[C@@H]1C[C@]1(NC(=O)[C@@H]1C[C@@H](Oc2cc(-c3ccccc3)nc3cc(OC)ccc23)CN1C(=O)[C@@H](NC(=O)OC(C)(C)C)C(C)(C)C)C(=O)NS(=O)(=O)C1(Cc2cccnc2)CC1` [Compound 49, (1-{4-(7-Methoxy-2-phenyl-quinolin-4-yloxy)-2-[1-(1-pyridin-3-ylmethyl-cyclopropanesulfonylaminocarbonyl)-2-vinyl-cyclopropylcarbamoyl]-pyrrolidine-1-carbonyl}-2,2-dimethyl-propyl)-carbamic acid tert-butyl], for which, in experiment [1], the IC50 was less than 0.05 µM. Besides, in experiment [2], the 50% effective concentration (EC50) fell in the range of 0.05 to 0.5 µM.
With `C=C[C@@H]1C[C@]1(NC(=O)[C@@H]1C[C@@H](Oc2cc(-c3ccccc3)nc3cc(OC)ccc23)CN1C(=O)[C@@H](NC(=O)Oc1ccc(C)cc1)C(C)(C)C)C(=O)NS(=O)(=O)C1(Cc2ccccc2)CC1` [Compound 100], the IC50 in experiment [1] lay within 0.05 to 0.5 µM. Moreover, the EC50 in experiment [2] lay in the range of 0.5 to 5 µM.
The corresponding values for `COc1ccc2c(O[C@@H]3C[C@@H](C(=O)NC4(C(=O)NS(=O)(=O)C5([Si](C)(C)C)CC5)CC4)N(C(=O)[C@@H](NC(=O)OC(C)(C)C)C(C)(C)C)C3)cc(-c3ccccc3)nc2c1` [Compound 71] are 0.05 to 0.5 µM and 0.5 to 5 µM.
On the same counts, the results for `C=C[C@@H]1C[C@]1(NC(=O)[C@@H]1C[C@@H](Oc2cc(-c3ccccc3)nc3cc(OC)ccc23)CN1C(=O)[C@@H](NC(=O)C1CCOCC1)C(C)(C)C)C(=O)NS(=O)(=O)C1(Cc2ccccc2)CC1` [Compound 60, 1-{3,3-Dimethyl-2-[(tetrahydro-pyran-4-carbonyl)-amino]-butyryl}-4-(7-methoxy-2-phenyl-quinolin-4-yloxy)-pyrrolidine-2-carboxylic acid [1-(1-benzyl-cyclopropanesulfonylaminocarbonyl)-2-vinyl-cyclopropyl]-amide] are less than 0.05 µM and 0.5 to 5 µM.
With `C=C[C@@H]1C[C@]1(NC(=O)[C@@H]1C[C@@H](Oc2cc(-c3ccccc3)nc3cc(OC)ccc23)CN1C(=O)[C@@H](NC(=O)OC1CCOCC1)C(C)(C)C)C(=O)NS(=O)(=O)C1(Cc2ccccc2)CC1` [Compound 56, {1-[2-[1-(1-Benzyl-cyclopropanesulfonylaminocarbonyl)-2-vinyl-cyclopropylcarbamoyl]-4-(7-methoxy-2-phenyl-quinolin-4-yloxy)-pyrrolidine-1-carbonyl]-2,2-dimethyl-propyl}-carbamic acid tetrahydro-pyran-4-yl Ester], in experiment [1], the half-maximal inhibitory concentration (IC50) is less than 0.05 µM. Besides, the EC50 in experiment [2] lay in the range of 0.05 to 0.5 µM.
The corresponding values for `C=C[C@@H]1C[C@]1(NC(=O)[C@@H]1C[C@@H](Oc2cc(-c3ccccc3)nc3cc(OC)ccc23)CN1C(=O)[C@@H](NC(=O)CC1CC1)C(C)(C)C)C(=O)NS(=O)(=O)C1(Cc2ccccc2)CC1` [Compound 58, 1-[2-(2-Cyclopropyl-acetylamino)-3,3-dimethyl-butyryl]-4-(7-methoxy-2-phenyl-quinolin-4-yloxy)-pyrrolidine-2-carboxylic acid [1-(1-benzyl-cyclopropanesulfonylaminocarbonyl)-2-vinyl-cyclopropyl]-amide] are less than 0.05 µM and 0.05 to 0.5 µM.

Source of the values: patent publication US6878722B2, “Substituted cycloalkyl P1′ hepatitis C virus inhibitors” (Bristol-Myers Squibb Company, priority 2002, dated 2005).
